A word on the IC50: it is the midpoint of a concentration-inhibition curve.

pIC50: −log10 of the molar value.

The source of these data is patent US9382228B2 (priority 2013, dated 2016).

In assay [1] the test system is osteoclast precursors. In words: cells. Type of assay: cell-based. The conditions noted are these: read-out: Osteoclast assay.
In assay [2] the test system is M-NFS-60 cells. As to the kind of experiment: cells. The conditions noted are these: 67 h, read-out: M-NFS-60 cell proliferation.
Method: M-NFS-6 Cell Proliferation Assay
A serial dilution of test compound was dispensed into a 384-well black clear bottom plate (Corning, Corning, N.Y.). Two thousand five hundred cells were added per well in 50 μL complete growth medium. […] IC50 values were calculated from a series of percent inhibition values determined at a range of inhibitor concentrations using software routines as implemented in the GraphPad Prism software package.
Assay [3] concerns phospho-FMS in THP-1 cells. In words: cells. Particulars: Homo sapiens, THP-1, read-out: pFMS inhibition in THP-1 cells.
For assay [4], the target named is T1, unphosphorylated c-FMS kinase (uFMS, Seq. ID no. 1) (Homo sapiens, UniProt P07333).
T1 sequence (P07333 538-972): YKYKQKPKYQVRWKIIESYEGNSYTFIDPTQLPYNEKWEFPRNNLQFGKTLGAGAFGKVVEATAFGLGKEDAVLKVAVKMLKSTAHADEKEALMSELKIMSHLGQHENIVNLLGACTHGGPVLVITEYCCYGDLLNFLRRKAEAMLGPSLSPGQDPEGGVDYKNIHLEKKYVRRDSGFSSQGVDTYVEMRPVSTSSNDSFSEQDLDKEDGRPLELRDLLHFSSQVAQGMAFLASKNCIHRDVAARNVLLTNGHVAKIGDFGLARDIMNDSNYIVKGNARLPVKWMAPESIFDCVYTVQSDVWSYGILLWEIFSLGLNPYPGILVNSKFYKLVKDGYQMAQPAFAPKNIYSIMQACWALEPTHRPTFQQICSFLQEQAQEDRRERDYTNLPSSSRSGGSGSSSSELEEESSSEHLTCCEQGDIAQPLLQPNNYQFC
As to the kind of experiment: biochemical. The conditions noted are these: for pIC50: uFMS, enzymatic assay, ATP 500 μM.

Assay [5] addresses unphosphorylated PDGFRβ kinase (uPDGFRβ, Seq. ID No. 3) (Homo sapiens, UniProt P09619). As to the kind of experiment: biochemical. Particulars: for pIC50: uPDGFRb, enzymatic assay, ATP 500 μM; for IC50: IC50 (nM) uPDGFRβ, Table 3.
The target of assay [6] is unphosphorylated c-KIT kinase (uKIT, Seq. ID no. 2) (Homo sapiens, UniProt P10721). In words: biochemical. Particulars: for pIC50: uKIT, enzymatic assay, ATP 2000 μM; for IC50: IC50 (nM) uKIT, Table 3.
unphosphorylated c-KIT kinase (uKIT, Seq. ID no. 2), sequence (P10721 with tags, fused parts or gaps): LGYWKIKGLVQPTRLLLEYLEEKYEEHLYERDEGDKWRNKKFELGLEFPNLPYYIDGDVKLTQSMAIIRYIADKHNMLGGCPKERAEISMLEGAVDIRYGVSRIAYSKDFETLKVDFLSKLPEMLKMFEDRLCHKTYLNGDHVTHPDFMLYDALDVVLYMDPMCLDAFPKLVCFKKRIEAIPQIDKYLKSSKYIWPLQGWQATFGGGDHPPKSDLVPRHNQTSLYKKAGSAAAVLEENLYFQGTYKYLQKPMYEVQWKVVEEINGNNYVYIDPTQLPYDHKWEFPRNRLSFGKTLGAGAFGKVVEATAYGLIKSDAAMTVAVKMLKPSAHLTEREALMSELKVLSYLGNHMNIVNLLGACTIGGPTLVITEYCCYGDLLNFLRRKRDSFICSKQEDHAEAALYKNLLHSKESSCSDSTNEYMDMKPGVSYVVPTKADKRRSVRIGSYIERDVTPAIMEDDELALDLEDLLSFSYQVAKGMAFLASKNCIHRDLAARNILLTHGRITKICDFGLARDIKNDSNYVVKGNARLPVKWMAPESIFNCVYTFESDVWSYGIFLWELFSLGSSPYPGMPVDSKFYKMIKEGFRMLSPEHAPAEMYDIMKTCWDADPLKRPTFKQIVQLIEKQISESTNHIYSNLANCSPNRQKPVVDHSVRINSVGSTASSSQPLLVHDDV
Method: uKit kinase (Seq. ID No. 2) Assay
In this assay, the oxidation of NADH (thus the decrease at A340 nm) was continuously monitored spectrophometrically. […] The inhibition reaction was started by mixing serial diluted test compound with the above reaction mixture. The absorption at 340 nm was monitored continuously for 4 hours at 30° C. on Synergy 2 plate reader (BioTech).

unphosphorylated PDGFRβ kinase (uPDGFRβ, Seq. ID No. 3), sequence (P09619 557-1106): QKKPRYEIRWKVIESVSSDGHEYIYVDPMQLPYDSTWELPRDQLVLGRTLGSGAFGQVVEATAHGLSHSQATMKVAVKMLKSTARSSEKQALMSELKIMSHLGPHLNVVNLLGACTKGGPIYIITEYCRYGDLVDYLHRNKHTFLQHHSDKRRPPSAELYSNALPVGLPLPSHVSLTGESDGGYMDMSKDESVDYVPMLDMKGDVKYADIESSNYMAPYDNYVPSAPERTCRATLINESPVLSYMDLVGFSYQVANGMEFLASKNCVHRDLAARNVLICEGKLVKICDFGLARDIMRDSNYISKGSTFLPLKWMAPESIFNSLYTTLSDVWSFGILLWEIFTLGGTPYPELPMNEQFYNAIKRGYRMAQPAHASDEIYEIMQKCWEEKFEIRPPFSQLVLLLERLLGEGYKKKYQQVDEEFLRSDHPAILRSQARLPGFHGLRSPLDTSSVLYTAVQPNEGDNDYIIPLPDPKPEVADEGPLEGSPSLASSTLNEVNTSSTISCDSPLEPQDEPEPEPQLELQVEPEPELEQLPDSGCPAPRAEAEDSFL

On to `Cn1cc(-c2cc(Oc3ccc(NC(=O)NC(=O)[C@H]4C[C@](C)(F)C4)nc3)ccn2)cn1` [Example 1, trans-3-fluoro-3-methyl-N-((5-((2-(1-methyl-1H-pyrazol-4-yl)pyridin-4-yl)oxy)pyridin-2-yl)carbamoyl)cyclobutanecarboxamide], for which the pIC50 in assay [1] is above 8.00; in assay [2], above 8.00; in assay [3], above 8.00; in assay [4], above 8.00; in assay [5] it was 7.00 to 8.00.
Consider `Cn1cc(-c2cc(Oc3ccc(NC(=O)NC(=O)C4CC(C)(C)C4)nc3)ccn2)cn1` [Example 2, 3,3-dimethyl-N-((5-((2-(1-methyl-1H-pyrazol-4-yl)pyridin-4-yl)oxy)pyridin-2-yl)carbamoyl)cyclobutanecarboxamide], for which the pIC50 in assay [1] is above 8.00; in assay [2], above 8.00; in assay [3] it was above 8.00; in assay [4] it was above 8.00; in assay [6], above 8.00; in assay [5], 7.00 to 8.00.
For `Cn1cc(-c2cc(Oc3ccc(NC(=O)NC(=O)CCC4(C(F)(F)F)CC4)nc3)ccn2)cn1` [Example 3, N-((5-((2-(1-methyl-1H-pyrazol-4-yl)pyridin-4-yl)oxy)pyridin-2-yl)carbamoyl)-3-(1-(trifluoromethyl)cyclopropyl)propanamide], the pIC50 in assay [1], in assay [2], in assay [3], in assay [4], in assay [6] and in assay [5] was above 8.00 in each case.
As for `Cn1cc(-c2cc(Oc3ccc(NC(=O)NC(=O)CC4CCOCC4)nc3)ccn2)cn1` [Example 4, N-((5-((2-(1-methyl-1H-pyrazol-4-yl)pyridin-4-yl)oxy)pyridin-2-yl)carbamoyl)-2-(tetrahydro-2H-pyran-4-yl)acetamide], the pIC50 in assay [1] is above 8.00; in assay [2], above 8.00; in assay [3], 7.00 to 8.00; in assay [4], above 8.00; in assay [6], 6.00 to 7.00; in assay [5], 6.00 to 7.00. For the same molecule, the IC50 in assay [4] (IC50 (nM) uFMS, Table 3) was determined as 8 nM; in assay [6], 165 nM; in assay [5], 168 nM.
With `Cc1nc(NC(=O)NC(=O)CCC2(C(F)(F)F)CC2)ccc1Oc1ccnc(-c2cnn(C)c2)c1` [Example 11, N-((6-methyl-5-((2-(1-methyl-1H-pyrazol-4-yl)pyridin-4-yl)oxy)pyridin-2-yl)carbamoyl)-3-(1-(trifluoromethyl)cyclopropyl)propanamide], the pIC50 in assay [1] was above 8.00; in assay [2] it was above 8.00; in assay [3], 7.00 to 8.00; in assay [4] it was above 8.00; in assay [6] it was above 8.00; in assay [5] it was 7.00 to 8.00.
In the case of `Cc1nc(NC(=O)NC(=O)C2CCC(F)(F)CC2)ccc1Oc1ccnc(-c2cnn(C)c2)c1` [Example 12, 4,4-difluoro-N-((6-methyl-5-((2-(1-methyl-1H-pyrazol-4-yl)pyridin-4-yl)oxy)pyridin-2-yl)carbamoyl)cyclohexanecarboxamide], the pIC50 is above 8.00 in assay [1]; above 8.00 in assay [2]; 7.00 to 8.00 in assay [3]; above 8.00 in assay [4]; 7.00 to 8.00 in assay [6]; 6.00 to 7.00 in assay [5].
Regarding `Cc1ccc(-c2cc(Oc3ccc(NC(=O)NC(=O)C(C)(C)C)nc3C)ccn2)cn1` [Example 39, N-((6-methyl-5-((6′-methyl-[2,3′-bipyridin]-4-yl)oxy)pyridin-2-yl)carbamoyl)pivalamide], the pIC50 in assay [1] and in assay [3] was 7.00 to 8.00 in each case.
`Cc1nc(NC(=O)NC(=O)CC(C)(C)C(F)(F)F)ccc1Oc1ccnc(-c2cnn(C)c2)c1` [Example 47, 4,4,4-trifluoro-3,3-dimethyl-N-((6-methyl-5-((2-(1-methyl-1H-pyrazol-4-yl)pyridin-4-yl)oxy)pyridin-2-yl)carbamoyl)butanamide]: the pIC50 in assay [1] and in assay [3] was 7.00 to 8.00 throughout.
For the molecule `Cn1cc(-c2cc(Oc3ccc(NC(=O)NC(=O)CC(C)(C)C(F)(F)F)nc3)ccn2)cn1` [Example 48, 4,4,4-trifluoro-3,3-dimethyl-N-((5-((2-(1-methyl-1H-pyrazol-4-yl)pyridin-4-yl)oxy)pyridin-2-yl)carbamoyl)butanamide], the pIC50 was 7.00 to 8.00 in assay [1]; 7.00 to 8.00 in assay [2]; above 8.00 in assay [3]; above 8.00 in assay [4]; above 8.00 in assay [6].
As for `Cn1cc(-c2cc(Oc3ccc(NC(=O)NC(=O)C4(C)CC4)nc3)ccn2)cn1` [Example 52, 1-methyl-N-((5-((2-(1-methyl-1H-pyrazol-4-yl)pyridin-4-yl)oxy)pyridin-2-yl)carbamoyl)cyclopropanecarboxamide], the pIC50 was above 8.00 in assay [1], above 8.00 in assay [3], 6.00 to 7.00 in assay [6] and below 6.00 in assay [5].
For the molecule `COC(C)(C)C(=O)NC(=O)Nc1ccc(Oc2ccnc(-c3cnn(C)c3)c2)cn1` [Example 55, 2-methoxy-2-methyl-N-((5-((2-(1-methyl-1H-pyrazol-4-yl)pyridin-4-yl)oxy)pyridin-2-yl)carbamoyl)propanamide], the pIC50 was above 8.00 in assay [1] and 7.00 to 8.00 in assay [3].
Regarding `Cc1cc(-c2cc(Oc3ccc(NC(=O)NC(=O)C(C)(C)C)nc3C)ccn2)ccn1` [Example 56, N-((6-methyl-5-((2′-methyl-[2,4′-bipyridin]-4-yl)oxy)pyridin-2-yl)carbamoyl)pivalamide], the pIC50 in assay [1] was 7.00 to 8.00; in assay [3], above 8.00; in assay [6], below 6.00; in assay [5], below 6.00. Moreover, the IC50 worked out at 3100 nM in assay [6] and 2800 nM in assay [5].
In the case of `Cc1cc(-c2cc(Oc3ccc(NC(=O)NC(=O)C(C)(C)C)nc3C)ccn2)on1` [Example 76, N-((6-methyl-5-((2-(3-methylisoxazol-5-yl)pyridin-4-yl)oxy)pyridin-2-yl)carbamoyl)pivalamide], the pIC50 was 7.00 to 8.00 in assay [1], above 8.00 in assay [3], below 6.00 in assay [6] and below 6.00 in assay [5].
In the case of `Cc1cc(-c2cc(Oc3ccc(NC(=O)NC(=O)C(C)C)nc3C)ccn2)ccn1` [Example 79, N-((6-methyl-5-((2′-methyl-[2,4′-bipyridin]-4-yl)oxy)pyridin-2-yl)carbamoyl)isobutyramide], the pIC50 in assay [1] and in assay [3] was above 8.00 throughout.
`Cc1cn(-c2cc(Oc3ccc(NC(=O)NC(=O)C4(C)CCOCC4)nc3)ccn2)cn1` [Example 157, 4-methyl-N-((5-((2-(4-methyl-1H-imidazol-1-yl)pyridin-4-yl)oxy)pyridin-2-yl)carbamoyl)tetrahydro-2H-pyran-4-carboxamide]: the pIC50 was 7.00 to 8.00 in assay [1]; 6.00 to 7.00 in assay [2]; 7.00 to 8.00 in assay [4]; 6.00 to 7.00 in assay [6]; 6.00 to 7.00 in assay [5].
On to `COC1(C(=O)NC(=O)Nc2cc(C)c(Oc3ccnc(-n4cnc(C)c4)c3)cn2)CCCC1` [Example 162, 1-methoxy-N-((4-methyl-5-((2-(4-methyl-1H-imidazol-1-yl)pyridin-4-yl)oxy)pyridin-2-yl)carbamoyl)cyclopentanecarboxamide], for which the pIC50 is 7.00 to 8.00 in assay [1]; above 8.00 in assay [2]; above 8.00 in assay [4]; 7.00 to 8.00 in assay [6]; 6.00 to 7.00 in assay [5].
As to `Cc1ncc(-c2cc(Oc3ccc(NC(=O)NC(=O)C4(C)CCOCC4)nc3)ccn2)o1` [Example 163, 4-methyl-N-((5-((2-(2-methyloxazol-5-yl)pyridin-4-yl)oxy)pyridin-2-yl)carbamoyl)tetrahydro-2H-pyran-4-carboxamide], the pIC50 is 7.00 to 8.00 in assay [1]; 7.00 to 8.00 in assay [2]; 7.00 to 8.00 in assay [4]; 6.00 to 7.00 in assay [6]; below 6.00 in assay [5].
`COC1(C(=O)NC(=O)Nc2ccc(Oc3ccnc(-c4cc(C)no4)c3)c(C)n2)CCCC1` [Example 166, 1-methoxy-N-((6-methyl-5-((2-(3-methylisoxazol-5-yl)pyridin-4-yl)oxy)pyridin-2-yl)carbamoyl)cyclopentanecarboxamide]: the pIC50 in assay [1] is 7.00 to 8.00; in assay [2], 7.00 to 8.00; in assay [4], above 8.00; in assay [6], 6.00 to 7.00; in assay [5] it was 6.00 to 7.00.
As to `COC1(C(=O)NC(=O)Nc2ccc(Oc3ccnc(-c4ccnc(C)c4)c3)cn2)CCCC1` [Example 168, 1-methoxy-N-((5-((2′-methyl-[2,4′-bipyridin]-4-yl)oxy)pyridin-2-yl)carbamoyl)cyclopentanecarboxamide], the pIC50 is 7.00 to 8.00 in assay [1]; 7.00 to 8.00 in assay [2]; above 8.00 in assay [4]; 6.00 to 7.00 in assay [6]; 6.00 to 7.00 in assay [5].
